# Results from patent US20060257441A1, “Natural essential oil sanitary insect pest repellent and its use” (SUZUKI YUSHI INDUSTRIAL CO., LTD., priority 2005, published 2006).
# System: Croton bug
# Assay: Physiological activity (Croton bug repellency) test, Test Example 5
# Type: in vivo
# Conditions: 3% solution in 1:1 hexane/acetone
# Source text: A fraction 1 (16.192 g) of copaiba oil was given by silica gel column chromatography (replenishment silica gel: BW-127ZH, 350 g) using 3 liter of hexane as an elution solvent. A fraction 2 (2.868 g) was given by silica gel column chromatography (same as above) using a 4:4:1 mixture of hexane/chloroform/ethyl acetate as an elution solvent. A fraction 3 (1.401 g) was given by fractionating the remnant of the fraction 2 using a 1:1 solvent mixture of ethyl acetate/chloroform 21 as an elution solvent.
# For comparison, the same test was conducted using copaiba oil and β-caryophyllene. The specimen was a 3% solution in the solvent. The solution was given using a 1:1 (volume ratio) mixture of hexane and acetone.
structure (smiles),measurement,setting,value
C=C1CC/C=C(\C)CC[C@@H]2[C@@H]1CC2(C)C [β-caryophyllene],Repellency ratio (%) with time,4 hours,96.2%
same,Repellency ratio (%) with time,24 hours,70.6%
same,Repellency ratio (%) with time,48 hours,52.6%
